The term IC50 denotes the concentration at which inhibition is half-maximal. For orientation: melting point means the temperature, or range, at which the solid turns liquid.

Like-named read-outs stand apart in the source and are kept apart here.

Data set [1] concerns MDA-MB-453 cells. Put plainly: MTT in vitro cytotoxicity, MDA-MB-453. In kind it is cell-based, human. How it is done: (§1) Human lung cancer cells (NCI-H460, NCI-H1299, and A549), human breast cancer cells (MDA-MB-231, MDA-MB-453, and MCF-7), human liver cancer cells (Huh-7 and HepG2), human colon cancer cells (coca-2, HT-29, and HCT116), human cervical cancer cells (HeLa), human normal lung cells (BEAS-2B), and human normal […] (MCF-10) were from the State Key Laboratory of Pharmaceutical Biotechnology, Nanjing University. NCI-H460 were cultured in 1640 medium containing 10% fetal bovine serum (FBS). MDA-MB-231 were cultured in L15 medium containing 10% FBS without CO2, and other cell lines were cultured in DMEM medium containing 10% FBS CO2 in the incubator.
(§2) MTT assay was used to identify 14 different cell lines (human lung cancer cells NCI-H460, NCI-H1299, and A549; human breast cancer cells MDA-MB-231, MDA-MB-453, and MCF-7; human liver cancer cells Huh-7 and HepG2; human colon cancer cells coca-2, HT-29, and HCT116; and human cervical cancer cells HeLa) and 2 kinds of normal cell lines (human normal lung epithelial cells BEAS-2B, human normal breast epithelial cells MCF10-A) for quantitative analysis ([15]). In addition, 10-HCPT and palbociclib were used as positive control.
(§3) Cells were harvested during the logarithmic growth phase and seeded into 96-well plates at a density of 2.0×10^3 cells/well. After being incubated for 24 h, the cells were treated with different concentrations of various culture programs for 48 h. Afterwards, 20 μl of MTT solution (5 mg/ml) was added to each well, and the cells were incubated in a 5% CO2 atmosphere at 37°C for another 4 h. Then, the supernatant was discarded, and the formazan crystals were dissolved in 150 μl DMSO. Subsequently, the absorbance was measured at 570 nm via a Tecan microplate reader. The concentration that caused 50% inhibition of cell viability (IC50) values was calculated by GraphPad Software. Triplicate experiments were performed in parallel for each concentration, and the results are shown as the mean ± SD. The inhibitory ratio was calculated using the following formula: inhibitory ratio (%) = [1−(mean absorbance of experiment group)/(mean absorbance of control group)] × 100.

The subject of data set [2] is Coca-2 cells. Put plainly: MTT in vitro cytotoxicity, Coca-2. Format: cell-based, human. The conditions noted are these: 48 h. As for the experimental part:
as §1, §2, §3

For data set [3], the system named is MCF10-A cells. Put plainly: MTT in vitro cytotoxicity, MCF10-A normal breast epithelial cells. In kind it is cell-based, human. The following applies: MCF-10A, 48 h. How it is done:
as §1, §2, §3

The subject of data set [4] is MDA-MB-231 cells. In words: MTT in vitro cytotoxicity, MDA-MB-231. Format: cell-based, human. As for the experimental part:
as §1, §2, §3

Data set [5] has as its system HepG2 cells. In words: MTT in vitro cytotoxicity, HepG2. In kind it is cell-based, human. As for the experimental part: as §1, §2, §3
Data set [6] concerns MCF-7 cells. Put plainly: MTT in vitro cytotoxicity, MCF-7. In kind it is cell-based, human. As for the experimental part:
as §1, §2, §3

For data set [7], the system named is HCT116 cells. Put plainly: MTT in vitro cytotoxicity, HCT116. Format: cell-based, human. As for the experimental part: as §1, §2, §3
Data set [8] has as its system HT-29 cells. Put plainly: MTT in vitro cytotoxicity, HT-29. In kind it is cell-based, human. As for the experimental part:
as §1, §2, §3

In data set [9] the test system is BEAS-2B cells. In words: MTT in vitro cytotoxicity, BEAS-2B normal lung epithelial cells. Format: cell-based, human. The conditions noted are these: 48 h. How it is done:
as §1, §2, §3

For data set [10], the system named is NCI-H460 cells. In words: MTT in vitro cytotoxicity, NCI-H460. Format: cell-based, human. As for the experimental part:
as §1, §2, §3

For data set [11], the system named is Hela cells. In words: MTT in vitro cytotoxicity, Hela. In kind it is cell-based, human. The conditions noted are these: 48 h. As for the experimental part: as §1, §2, §3
Data set [12] has as its system Huh-7 cells. Put plainly: MTT in vitro cytotoxicity, Huh-7. In kind it is cell-based, human. How it is done: as §1, §2, §3
Data set [13] deals with NCI-H1299 cells. In words: MTT in vitro cytotoxicity, NCI-H1299. Format: cell-based, human. As for the experimental part: as §1, §2, §3
The subject of data set [14] is A549 cells. Put plainly: MTT in vitro cytotoxicity, A549. Format: cell-based, human. As for the experimental part:
as §1, §2, §3

[15] abbreviates: MDA-MB-453 human breast cancer cells, MTT, 48 h, read-out: IC50.
[16] abbreviates: Coca-2 human colon cancer cells, MTT, read-out: IC50.
[17] abbreviates: MCF10-A human normal breast epithelial cells, MTT, read-out: IC50.
[18] abbreviates: MDA-MB-231 human breast cancer cells, MTT, 48 h, read-out: IC50.
Where [19] appears, read: HepG2 human liver cancer cells, MTT, 48 h, read-out: IC50.
Where [20] appears, read: MCF7, MCF-7 human breast cancer cells, MTT, 48 h, read-out: IC50.
Where [21] appears, read: HCT-116, HCT116 human colon cancer cells, MTT, 48 h, read-out: IC50.
Setting [22] is: HT-29 human colon cancer cells, MTT, 48 h, read-out: IC50.
[23] abbreviates: BEAS-2B human normal lung epithelial cells, MTT, read-out: IC50.
Setting [24] is: NCI-H460 human lung cancer cells, MTT, 48 h, read-out: IC50.
Setting [25] is: Hela human cervical cancer cells, MTT, read-out: IC50.
The mark [26] stands for this setting: Huh-7 human liver cancer cells, MTT, 48 h, read-out: IC50.
Where [27] appears, read: NCI-H1299 human lung cancer cells, MTT, 48 h, read-out: IC50.
Where [28] appears, read: A549 human lung cancer cells, MTT, 48 h, read-out: IC50.

Turning to `CC[C@@]1(O)C(=O)OCc2c1cc1n(c2=O)Cc2cc3cc(O)ccc3nc2-1` [10-HCPT, 10-hydroxycamptothecin, reference compound], the IC50 in data set [1] (Homo sapiens, MDA-MB-453, 48 h) worked out at 5.73 ± 0.62 µM; in data set [2] (Homo sapiens), 13.4 ± 0.34 µM; in data set [3] (Homo sapiens), 20.3 ± 0.59 µM; in data set [4] (Homo sapiens, MDA-MB-231, 48 h) it was 15.5 ± 1.07 µM; in [5] (Homo sapiens, HepG2, 48 h), 2.45 ± 0.27 µM; in data set [6] (Homo sapiens, MCF7, 48 h), 13.2 ± 0.31 µM. For the same compound, the IC50 was determined as 10.4 ± 0.7 µM in data set [7] (Homo sapiens, HCT-116, 48 h); 4.61 ± 0.19 µM in data set [8] (Homo sapiens, HT-29, 48 h); 7.05 ± 0.52 µM in data set [9] (Homo sapiens, BEAS-2B); 1.96 ± 0.01 µM in [10] (Homo sapiens, NCI-H460, 48 h); 6.54 ± 0.07 µM in data set [11] (Homo sapiens, HeLa); 7.69 ± 0.84 µM in data set [12] (Homo sapiens, Huh-7, 48 h). Also, the IC50 worked out at 3.39 ± 0.16 µM in data set [13] (Homo sapiens, NCI-H1299, 48 h) and 4.14 ± 0.03 µM in [14] (Homo sapiens, A549, 48 h).
In the case of `CC[C@]1(O)C(=O)OCc2c1cc1n(c2=O)Cc2cc3cc(OC(=O)CCC(=O)N4CCN(c5ccc(Nc6ncc7c(C)c(C(C)=O)c(=O)n(C8CCCC8)c7n6)nc5)CC4)ccc3nc2-1` [HP-2, (R)-4-ethyl-4-hydroxy-3,14-dioxo-3,4,12,14-tetrahydro-1H-pyrano[3’,4’:6,7] indolizino[1,2-b]quinolin-9-yl4-(4-(6-((6-acetyl-8-cyclopentyl-5-methyl-7-oxo-7,8-dihydropyrido[2,3-d]pyrimidin-2-yl)amino)pyridin-3-yl)piperazin-1-yl)-4-oxobutanoate], the melting point lay in the range of 48.9 to 50.5 °C. Further, in data set [1] (setting [15]), the IC50 was found to be 6.38 ± 0.97 µM. Besides, the IC50 in data set [2] (setting [16]) was 18.8 ± 0.46 µM. The IC50 in [3] (setting [17]) is 31.38 ± 0.23 µM. Moreover, the IC50 in [4] (setting [18]) is 16.5 ± 0.82 µM. Besides, the IC50 in data set [5] (setting [19]) was 8.11 ± 1.34 µM. Besides, the IC50 in data set [6] (setting [20]) was 16.7 ± 0.59 µM. Moreover, the IC50 in data set [7] (setting [21]) was determined as 19.6 ± 1.21 µM. Also, the IC50 in data set [8] (setting [22]) turned out to be 11.6 ± 0.57 µM. Moreover, the half-inhibitory concentration (IC50) in data set [9] (setting [23]) was 34.8 ± 0.44 µM. Also, in data set [10] (setting [24]), the IC50 was 1.32 ± 0.01 µM. Besides, the IC50 in data set [11] (setting [25]) was determined as 7.82 ± 2.34 µM. Also, the IC50 in [12] (setting [26]) amounted to 16.5 ± 1.76 µM. Besides, the half-inhibitory concentration (IC50) in data set [13] (setting [27]) came out at 3.35 ± 0.01 µM. In data set [14] (setting [28]), the IC50 is 5.24 ± 0.37 µM.
Consider `CC[C@]1(O)C(=O)OCc2c1cc1n(c2=O)Cc2cc3cc(OC(=O)/C=C/C(=O)N4CCN(c5ccc(Nc6ncc7c(C)c(C(C)=O)c(=O)n(C8CCCC8)c7n6)nc5)CC4)ccc3nc2-1` [HP-3, (R)-4-ethyl-4-hydroxy-3,14-dioxo-3,4,12,14-tetrahydro-1H-pyrano[3’,4’:6,7] indolizino[1,2-b]quinolin-9-yl(E)-4-(4-(6-((6-acetyl-8-cyclopentyl-5-methyl-7-oxo-7,8-dihydropyrido[2,3-d]pyrimidin-2-yl)amino)pyridin-3-yl)piperazin-1-yl)-4-oxobut-2-enoate], for which the melting point was in the range of 45.7 to 47.3 °C. Further, the IC50 in data set [1] (setting [15]) came to 8.31 ± 0.52 µM. Also, the IC50 in [2] (setting [16]) was 17.1 ± 0.28 µM. Moreover, the IC50 in data set [3] (setting [17]) came to 37.3 ± 1.66 µM. In [4] (setting [18]), the IC50 amounted to 27.3 ± 1.43 µM. The IC50 in data set [5] (setting [19]) was 6.84 ± 0.91 µM. In addition, the IC50 in data set [6] (setting [20]) was 21.4 ± 1.27 µM. For the same compound, the IC50 in data set [7] (setting [21]) worked out at 23.2 ± 0.49 µM. For the same compound, the IC50 in data set [8] (setting [22]) was found to be 15.4 ± 0.42 µM. Besides, in data set [9] (setting [23]), the half-inhibitory concentration (IC50) worked out at 39.98 ± 0.16 µM. Also, the IC50 in [10] (setting [24]) is 2.08 ± 0.25 µM. Also, the IC50 in [11] (setting [25]) is 14.9 ± 0.73 µM. Also, the IC50 in data set [12] (setting [26]) stood at 33.7 ± 1.03 µM. In addition, in data set [13] (setting [27]), the IC50 was determined as 4.35 ± 0.13 µM. The IC50 in data set [14] (setting [28]) stood at 5.52 ± 0.11 µM.
With `CC(=O)c1c(C)c2cnc(Nc3ccc(N4CCNCC4)cn3)nc2n(C2CCCC2)c1=O` [Palbociclib], the IC50 in data set [1] (setting [15]) was 5.15 ± 1.04 µM; in data set [2] (setting [16]), 35.9 ± 0.41 µM; in data set [3] (setting [17]), 39.7 ± 0.57 µM; in data set [4] (setting [18]) it was 11.7 ± 1.75 µM; in [5] (setting [19]), 7.55 ± 1.49 µM; in data set [6] (setting [20]) it was 8.73 ± 0.33 µM. Further, the concentration for half-maximal inhibition (IC50) in data set [7] (setting [21]) came to 31.6 ± 1.21 µM; in data set [8] (setting [22]) it was 16.8 ± 0.39 µM; in [9] (setting [23]) it was 38.8 ± 0.59 µM; in data set [10] (setting [24]) it was 2.95 ± 0.11 µM; in data set [11] (setting [25]), 21.35 ± 0.13 µM; in data set [12] (setting [26]), 32.1 ± 1.93 µM. In addition, the IC50 was 5.09 ± 0.24 µM in data set [13] (setting [27]) and 6.16 ± 0.19 µM in data set [14] (setting [28]).

The values above are taken from paper PMC9453454, “Design, synthesis, and anticancer activity of three novel palbociclib derivatives” (Frontiers in Oncology, 2022).
